# Experimental data published in paper PMC7912516, “New Antimicrobials Based on the Adarotene Scaffold with Activity against Multi-Drug Resistant Staphylococcus aureus and Vancomycin-Resistant Enterococcus” (Antibiotics, 2021).
# Several values for one entry are separate records, joined by “and”; a condition that tells them apart may be missing. Identical values can stand only once. Like-named read-outs stand apart in the source and are kept apart here.
# Columns and labels:
# [1] = test system: methicillin-resistant S. aureus (MRSA) strain MW2; set-up: method as in PMID 29590091; settings: ref [12]; cited from earlier work
# [2] = test system: S. aureus strain 1 (MDR clinical isolate, MRSA, mecA positive); assay: MIC/MBC by broth micro-dilution (CLSI); format: cell-based, Staphylococcus aureus; settings: S. aureus Strain 1; for MBC: in square brackets
# Method: (§1) The compounds were initially tested with a methicillin-resistant S. aureus and an E. faecalis clinical isolates (details in the experimental section), two MDR strains according to definition by Magiorakos et al.. The activity of studied compounds was assessed by broth micro-dilution method. Minimal Inhibitory Concentration (MIC), and Minimal Bactericidal Concentration (MBC) were determined and possible bacteriostatic or bactericidal activity was also investigated.
# (§2) MICs and MBCs were determined according to CLSI (Clinical and Laboratory Standards Institute) guidelines, in triplicate. Results are shown as modal values of the three replicates. According to MIC and MBC data, the killing rate was calculated as the ratio between MBC and MIC on which basis it is possible to define the compounds tested as bactericides (killing rate = 1–4), or bacteriostatic (killing rate > 4).
# (§3) Preparation of the solution containing molecules: for each molecule to be tested, solutions were made as DMSO stock, with a concentration of 2.560 mg/mL. Scalar dilutions were than prepared directly on plates by using Mueller Hinton Broth (MHB) as a growth medium (range 0.5–256 µg/mL).
# (§4) Bacterial suspension preparation: cryostrains preserved at −80 °C were recovered by incubation in growth medium (Brain Heart Infusion Broth, BHI) for 24–48 h at 35 ± 2 °C followed by passages in agar growth medium (Columbia Blood Agar). Colonies with less than 30 h were suspended in MHB with the purpose to prepare a bacterial suspension with a turbidity of 0.5 MF, containing approximately 1.5 × 10^8 cfu/mL. This suspension was than diluted in MHB until reaching a final concentration of 5 × 10^4 CFU/well. Simultaneously, check in broth-microdilution only with solvent (in order to exclude that the effect of growth inhibition might be due to the drug solution solvent), positive growth control in absence of DMSO and drug, and negative purity control only with injection broth were performed.
# S. aureus strain 1 (collection, MDR): mecA positive; MRSA, β-lactamase positive, resistant to ciprofloxacin, gentamicin and erythromycin.
# [3] = test system: E. faecalis strain 1 (MDR clinical isolate); assay: MIC/MBC by broth micro-dilution (CLSI); format: cell-based, Enterococcus faecalis; settings: for MBC: in square brackets
# Method: as §1, §2, §3, §4
# E. faecalis strain 1 (collection, MDR) vanA/B negative; aminoglycosides high-level resistant to aminoglycosides (gentamicin and streptomycin) and ampicillin.
# [4] = test system: tumor cell line H-460 NCI; assay: Cytotoxic activity, inhibition of cell growth; format: cell-based; settings: Homo sapiens, NCI-H460; H-460 cell line, unpublished results; ± SD; read-out: IC50 (concentration required for 50% inhibition of cell growth)
# Source text: Table 1 Antimicrobial activity of adarotene derivatives 1–20 against MDR clinical strains of S. aureus and E. faecalis and cytotoxic activity. | column: IC50 ^a (µM)
# [5] = Staphylococcus aureus, MRSA, modal value of three replicates, read-out: MIC
# [6] = Staphylococcus aureus, MRSA, modal value, read-out: MIC
# [7] = Enterococcus faecalis, modal value of three replicates, read-out: MIC
# [8] = Enterococcus faecalis, modal value, read-out: MIC
# [9] = modal value of three replicates
# [10] = Staphylococcus aureus, MRSA, modal value
# [11] = Enterococcus faecalis, modal value
"MIC [2, 5] [µg/mL]","MIC [2, 6] [µM]","MIC [3, 7] [µg/mL]","MIC [3, 8] [µM]","MIC [2, 9] [µg/mL]","MIC [3, 9] [µg/mL]",SMILES,activity against MRSA strain MW2 [1],IC50 [4] [µM],"MBC [2, 10]","MBC [3, 11]"
–,–,–,–,–,–,O=C(O)c1ccc2cc(-c3ccc(O)c(C45CC6CC(CC(C6)C4)C5)c3)ccc2c1 [CD437],exhibit activity,–,–,–
–,–,–,–,–,–,O=C(O)c1ccc(-c2ccc3cc(O)c(C45CC6CC(CC(C6)C4)C5)cc3c2)cc1 [CD1530],exhibit activity,–,–,–
32,50,128,201,–,–,CCCCC/C=C\C/C=C\CCCCCCCC(=O)Oc1ccc(-c2ccc(/C=C/C(=O)O)cc2)cc1C12CC3CC(CC(C3)C1)C2 [Compound 3],–,7.8 ± 0.7,–,–
2 to 4,5,1 to 4,2,2,1,N#C/C(=C\c1ccc(-c2ccc(O)c(C34CC5CC(CC(C5)C3)C4)c2)cc1)C(=O)O [Compound 9],–,> 10,4 µg/mL and 10 µM,4 µg/mL and 10 µM
8,15,4,8,–,–,O=C(O)/C=C/c1ccc(-c2cc(CNC(=O)Nc3ccccc3)c(O)c(C34CC5CC(CC(C5)C3)C4)c2)cc1 [Compound 14],–,> 10,8 µg/mL and 15 µM,16 µg/mL and 31 µM
